From patent publication US20260193254A1, “2-OXOQUINAZOLINE CRYSTALLINE FORMS” (IDEAYA Biosciences, Inc., priority 2022, published 2026)
In brackets after ≈: the same amount, converted by molar mass.

Experiments:
Assay type in all cases: physicochemical
[1] = Hygroscopicity: water sorption and desorption by dynamic vapor sorption (DVS); settings: for hygroscopicity: DVS at 25° C., cycle 40-0-95-0-40% RH; for form change after the DVS test: XRPD after DVS
Protocol: In some embodiments, the crystalline form described herein is further characterized by is further characterized by a dynamic vapor sorption (DVS) profile. In some embodiments, a DVS is recorded according to the method as described herein with a cycle of 40-0-95-0-40% RH at 25° C.
Water sorption and desorption behaviors of Form A, Form C, Form D, and Form T were investigated by DVS at 25° C. with a cycle of 40-0-95-0-40% RH. Dm/dt was 0.002. Minimum equilibration time was 60 min. Maximum equilibration time was 360 min. XRPD was measured after DVS test to determine potential form change.

[2] = Variable humidity and temperature XRPD experiments
Protocol: Based on DVS and DSC results of Form C, Form C starts to loss water when humidity is below 30% or when temperature is higher than about 44° C. […] In order to determine identity of potential form changes after the dehydration and upon the solid-solid transition, variable humidity and variable temperature XRPD techniques were applied. XRPD patterns of the sample were measured online under 25° C./ambient environment (initial)-120° C./N2 protection-25° C./ambient environment-25° C./80% RH (40 min)-25° C./0% RH (15 h), and 25° C./ambient environment (initial)-250° C./N2 protection-25° C./ambient environment. […] Form L coverts back to Form C after exposure to 25° C./80% RH for 40 min.
Based on DVS and DSC results of Form D, Form D starts to loss water when humidity is below 10% or when temperature is higher than 46° C. In order to determine identity of the dehydration product, variable humidity and variable temperature XRPD techniques were applied. XRPD patterns of the sample were measured online with a temperature cycle of 25° C./ambient environment (initial)-130° C./N2 protection (10 min)-25° C./N2 protection-25° C./ambient environment (3h) and two water sorption and desorption cycles of 50% RH (initial)-90% RH (3h)-60% RH (2h)-40% RH (2h)-20% RH (3h)-10% RH (3h)-0% RH (6h)-10% RH (3h)-20% RH (3h)-50% RH at 25° C. […] (higher than dehydration temperature). Form S converts back to Form D after exposure to ambient condition for 3 h.
In order to investigate potential form change of Form A upon heating, variable temperature XRPD technique was applied. XRPD patterns of the sample were measured online with a temperature cycle of 25° C. (initial)-50° C./N2 protection-70° C./N2 protection-250° C./N2 protection-25° C./N2 protection-25° C./ambient condition (3h). […] Form A converts to Form U when temperature is 250° C., and Form U converts to Form T after cooling to 25° C.

[3] = Grinding simulation experiments - dry grinding; settings: for tolerance to dry grinding: ground manually with mortar and pestle, 5 min or 1 min, XRPD
Protocol: About 20 mg of Form A, Form D, and Form T were ground manually with a mortar and a pestle for 5 min or 1 min. Potential from transition and degree of crystallinity were evaluated by XRPD.

[4] = Grinding simulation experiments - wet grinding (granulation)
Protocol: Water or ethanol was added drop wise to about 20 mg of Form A, Form D, or Form T until solid was wetted sufficiently. Vortex was applied between each addition. Samples were dried under ambient condition for 10 min. Potential form transition and degree of crystallinity were evaluated by XRPD.

[5] = Bulk stability of crystalline forms; settings: for Purity, Bulk (HPLC): Solid state; for Initial purity: before stress, HPLC; for chemical stability and physical stability (bulk stability): stressed under 25° C./92 RH, 40% C/75% RH and 60° C., XRPD and HPLC
Description: (§1) Solids obtained after bulk stability study were characterized by XRPD and HPLC.

[6] = Equilibrium solubility in FeSSIF and FaSSIF; settings: 24 hours; for Solubility: target concentration 1 mg/mL, HPLC method 1 or 2 (footnote); for impurity in solubility sample: no unit printed for impurity (column head mg/mL)
Protocol: Solid part and liquid part were separated by filtration. Solubility was measured by HPLC. Solid part (wet cake) was investigated by XRPD.

[7] = Variable humidity and temperature XRPD experiments; remark: listed apart in the source
[8] = Bulk stability of crystalline forms; parameters: key: Color A: All No change of color; settings: Solid state
Description: as §1

[9] = Intrinsic dissolution rate (IDR) evaluation in FaSSIF; settings: FaSSIF at 37° C.
Protocol: Only one surface of the pellet was exposed (surface area=0.50 cm^2) to 900 mL FaSSIF, the dissolution medium. Temperature of chamber medium was set as 37±0.5° C. Shaft rotation as 100 rpm and sampling time points as 2 min, 5 min, 10 min, 15 min, 20 min, 25 min, 30 min, 35 min, 40 min, 50 min, 60 min, and 120 min. 2 mL sample solution was withdrawn at each time point and centrifuged at 14,000 rpm for 5 min to isolate supernatant. Then concentration of the supernatant was analyzed by HPLC. After 120 min, XRPD of disc surface was measured.

[10] = 25° C./92% RH, open container, 1 week
[11] = 25° C./92% RH, open container, 2 weeks
[12] = 40° C./75% RH, open container, 1 week
[13] = 40° C./75% RH, open container, 2 weeks
[14] = 60° C., tight container, 1 week
[15] = 60° C., tight container, 2 weeks
[16] = 25° C./92% RH, open container, 4 weeks
[17] = 40° C./75% RH, open container, 4 weeks
[18] = 60° C., tight container, 4 weeks

Nc1nc(=O)n(-c2ccccc2Cl)c2nc(C(F)(F)F)ccc12 [Form D, 4-Amino-1-(2-chlorophenyl)-7-(trifluoromethyl)pyrido[2,3-d]pyrimidin-2(1H)-one]
humidity at which water is absorbed again / water content restored (conversion back to the hydrate) ([1]; DVS and variable humidity XRPD, 25° C.): higher than 20 % RH | hygroscopicity [1]: slightly hygroscopic | water uptake ([1]; DVS, from 40% to 95% RH, 25° C.): about 0.9% | form change after the DVS test [1]: No form change | XRPD (XRPD method 2) ([2]; VT13 25° C./55% RH (final)): Form D | temperature above which the form starts to lose water ([2]; based on DSC results): higher than 46 °C | dehydration product (form obtained on loss of water) ([2]; low humidity or heating above the dehydration temperature): Form S | XRPD after dry grinding ([3]; Dry grinding for 1 min): substantially amorphous | XRPD after dry grinding ([3]; Dry grinding for 5 min): substantially amorphous | tolerance to dry grinding [3]: poor tolerance | XRPD after wet grinding ([4]; Ethanol): substantially amorphous | XRPD after wet grinding ([4]; Water): No form change | form change after granulation with water ([4]; wet grinding, XRPD): no form change | tolerance to granulation with ethanol or water ([4]; wet grinding, XRPD): poor tolerance | tolerance to granulation with water ([4]; wet grinding, XRPD): good tolerance | Purity, Bulk (HPLC) [5, 10]: 98.0% | Purity, Bulk (HPLC) [5, 11]: 98.0% | Purity, Bulk (HPLC) [5, 12]: 98.1% | Purity, Bulk (HPLC) [5, 13]: 98.2% | Purity, Bulk (HPLC) [5, 14]: 98.1% | Purity, Bulk (HPLC) [5, 15]: 97.8% | Initial purity [5]: 98.0% | chemical stability and physical stability (bulk stability) [5]: good chemical stability and physical stability | XRPD of solid after solubility test ([6]; FaSSIF, pH 6.5, 37° C.): Form D | final pH ([6]; FaSSIF, pH 6.5, 37° C.): 6.6 | Solubility ([6]; FaSSIF, pH 6.5, 37° C.): 0.09 mg/mL (≈ 264 µM) | impurity in solubility sample ([6]; FaSSIF, pH 6.5, 37° C.): no impurity | XRPD of solid after solubility test ([6]; FeSSIF, pH 5.0, 37° C.): Form D | final pH ([6]; FeSSIF, pH 5.0, 37° C.): 5.2 | Solubility ([6]; FeSSIF, pH 5.0, 37° C.): 0.21 mg/mL (≈ 616 µM) | impurity in solubility sample ([6]; FeSSIF, pH 5.0, 37° C.): no impurity | XRPD (XRPD method 2) ([7]; VRH1 21° C./50% RH (initial)): Form D | XRPD (XRPD method 2) ([7]; VRH2 21° C./90% RH (3 h)): Form D | XRPD (XRPD method 2) ([7]; VRH3 21° C./60% RH (2 h)): Form D | XRPD (XRPD method 2) ([7]; VRH4 21° C./40% RH (2 h)): Form D | XRPD (XRPD method 2) ([7]; VRH5 21° C./20% RH (3 h), desorption): Form D | XRPD (XRPD method 2) ([7]; VRH6 21° C./10% RH (3 h), desorption): Form S | XRPD (XRPD method 2) ([7]; VRH7 21° C./0% RH (6 h)): Form S | XRPD (XRPD method 2) ([7]; VRH8 21° C./10% RH (3 h), after 0% RH): Form S | XRPD (XRPD method 2) ([7]; VRH9 21° C./20% RH (3 h), after 0% RH): Form S | XRPD (XRPD method 2) ([7]; VRH10 21° C./50% RH (final)): Form D | XRPD (XRPD method 2) ([7]; VT9 25° C./55% RH (initial)): Form D | XRPD (XRPD method 2) ([7]; VT10 130° C./55% RH (10 min)): Form S | XRPD (XRPD method 2) ([7]; VT11 25° C./N2 protection (10 min)): Form S | XRPD (XRPD method 2) ([7]; VT12 25° C./55% RH (3 h)): Form D | Color [8, 10]: A | Color [8, 11]: A | Color [8, 12]: A | Color [8, 13]: A | Color [8, 14]: A | Color [8, 15]: A

Nc1nc(=O)n(-c2ccccc2Cl)c2nc(C(F)(F)F)ccc12 [Form T, 4-Amino-1-(2-chlorophenyl)-7-(trifluoromethyl)pyrido[2,3-d]pyrimidin-2(1H)-one]
hygroscopicity [1]: slightly hygroscopic | form change after the DVS test [1]: No form change | XRPD after dry grinding ([3]; Dry grinding for 5 min): substantially amorphous | tolerance to dry grinding [3]: poor tolerance | XRPD after wet grinding ([4]; Water): No form change | form change after granulation with water ([4]; wet grinding, XRPD): no form change | tolerance to granulation with water ([4]; wet grinding, XRPD): good tolerance | Purity, Bulk (HPLC) [5, 10]: 99.1% | Purity, Bulk (HPLC) [5, 11]: 99.0% | Purity, Bulk (HPLC) [5, 16]: 98.9% | Purity, Bulk (HPLC) [5, 12]: 98.9% | Purity, Bulk (HPLC) [5, 13]: 98.7% | Purity, Bulk (HPLC) [5, 17]: 98.3% | Purity, Bulk (HPLC) [5, 14]: 99.1% | Purity, Bulk (HPLC) [5, 15]: 99.0% | Purity, Bulk (HPLC) [5, 18]: 98.7% | Initial purity [5]: 99.1% | chemical stability and physical stability (bulk stability) [5]: good chemical stability and physical stability | XRPD of solid after solubility test ([6]; FaSSIF, pH 6.5, 37° C.): Form T | final pH ([6]; FaSSIF, pH 6.5, 37° C.): 6.5 | Solubility ([6]; FaSSIF, pH 6.5, 37° C.): 0.08 mg/mL (≈ 235 µM) | XRPD of solid after solubility test ([6]; FeSSIF, pH 5.0, 37° C.): Form T | final pH ([6]; FeSSIF, pH 5.0, 37° C.): 5.0 | Solubility ([6]; FeSSIF, pH 5.0, 37° C.): 0.16 mg/mL (≈ 470 µM) | XRPD after IDR ([9]; disc surface after 120 min): No form change | Concentration detected during IDR test (Comments) ([9]; for Form V and Form A remains same during the whole process, LOQ for Form T and amorphous form): <LOQ (0.0003 mg/mL | Color [8, 10]: A | Color [8, 11]: A | Color [8, 16]: A | Color [8, 12]: A | Color [8, 13]: A | Color [8, 17]: A | Color [8, 14]: A | Color [8, 15]: A | Color [8, 18]: A
